Entries after “also recorded” stand apart in the source; their conditions may differ.
Assays:
[1] = toxicity to animals: highest non-lethal dose given ip to ICR mice; conditions: mouse, in vivo
Procedure: (§1) The above mentioned thiosemicarbazone compounds were finally powdered and suspended in dimethylsulfoxid (DMSO)-(Merck) to get stock solutions of 10 mg/ml. Stock solutions were diluted to a final volume of 0.25 ml DMSO to obtain the following concentrations: 2,5 mg, 2 mg; […], 1 mg, in 0.25 ml final volume.
(§2) Each drug concentration of the 4 thiosemicarbazone derivatives was injected in a sterile manner intraperitonally (iP) to a group of 10 ICR mice, each weighing 20 g. After one injection the mice were followed for the highest non-lethal dose, and for the lethal dose. The results are an average of three separate trials.

[2] = toxicity to animals: Lethal Dose-50 given ip to ICR mice; conditions: mouse, in vivo, ICR mice 20 g, one injection, average of three separate trials, Table 3
Procedure: as §1, §2

[3] = test system: viruses belonging to the Retroviridae family; test: inhibition of virus production of Retroviridae in infected cells (summary); format: cell-based; conditions: tested by applicant
Procedure: The thiosemicarbazone compounds described in this invention, were found by us to be specific inhibitors of viruses belonging to the Retroviridae family. Results obtained in our laboratory indicate that amounts ranging from 17 μM to 34 μM of the thiosemicarbazones suppressed specifically the production of viruses belonging to the Retroviridae family. The extent of inhibition of virus production in the infected cells was 75-85%. This inhibition was confirmed by various parameters of virus assay such as: reverse transcriptase activity, virus infectivity and contents of viral structural proteins.

[4] = test system: pox-virus family (smallpox); conditions: oral, 40 mg/kg for 4 consecutive days; cited from earlier work
[5] = test system: viruses listed in Table I; format: cell-based, Mouse, Avian, Human cells; conditions: 34 μM, 18 hrs (such conditions of treatment)
[6] = test system: human immunodeficiency virus--HIV; test: inhibition of HIV production in chronically infected H9 and HuT-78 cell lines; format: cell-based, human cell lines; conditions: evaluated in a similar manner (2 hrs, then 1:10 dilution, 24 hrs)
Procedure: The thiosemicarbazone compounds were examined for their inhibitory effect on the human immunodeficiency virus--HIV in the following chronically infected cell lines:
H9 cell line--A human established T-cell line chronically infected with HIV;
HuT-78 cell line--A human cell line chronically infected with ARV2 (HIV).
concentrations of 5×10^6 cells per ml were incubated with 17-34 μM of the different thiosemicarbazones. Virus production was assayed in the drug-treated and untreated cells after 7 hrs of exposure. An 85% inhibition of virus production was found in the drug-treated cultures as compared to control untreated cultures. Virus production was determined by assaying various virus parameters such as reverse transcriptase activity, plaque forming units (PFU) and viral structtural protein content.
The compounds were also tested by employing a different way of treatment of the HIV infected cultures: 5×10^6 infected cells were incubated with 17-34 μM of the drug for 2 hrs. Subsequently a dilution of 1:10 of the medium was performed to final concentration of 1.7-3.4 μM of the drug. The cultures were further incubated for 24 hrs in diluted medium and virus production was assayed. The extent of inhibition of HIV production achieved by the described treatment was 75-85%. M-IBT was evaluated in a similar manner.

[7] = test system: EIAV; test: inhibition of EIAV production in chronically infected fibroblast cells; format: cell-based; conditions: 2 hrs then 1:10 dilution, further 24 hours
Procedure: Fibroblast cells of […] chronically infected with EIAV were incubated for 2 hrs with concentrations ranging from 17 μM to 34 μM of the described thiosemicarbazone compounds. Subsequently the medium was diluted 1:10 to obtain a final concentration of ranging from 1.7 to 3.4 μM. The cultures were further incubated for 24 hours and virus production was assayed in drug-treated and untreated cells. The extent of inhibition of virus production in the treated cultures was 70-80%. M-IBT was tested and found to be ineffective.

[8] = test system: Abelson-Moloney murine leukemia virus (Ab-MoMuLV) induced B-lymphoma; test: antiviral effect in mice against B-lymphoma induced by Ab-MoMuLV; format: in vivo; conditions: daily dose of 2 μg/4 g weight for 10 consecutive days, immediately after infection, versus untreated mice
Procedure: One of the three compounds, namely M-IBDET was examined as to its efficacy against the Abelson-Moloney murine leukemia virus (Ab-MoMuLV). Injection of susceptible mice with B-cell lymphocytes infected with Ab-MoMuLV usually results in induction of B-type lymphoma within 3 weeks. Treatment of mice immediately after infection with MoMuLV infected cells with M-IBDET at a daily dose of 2 μg/4 g weight for 10 consecutive days caused a delay of 3 weeks in the appearance of the lymphoma in the drug-treated mice as compared with untreated mice.

[9] = test system: Moloney leukemia virus; conditions: literature refs (1-3); cited from earlier work
[10] = ICR mice 20 g, one injection, average of three separate trials, Table 2

## C=CCN1C(=O)C(=NNC(=S)N(C)C)c2ccccc21 [A-IBDMT, 1-allylisatin-β-4':4'-dimethylthiosemicarbazone]
[1]; [10]
  MTD: 100 mg/kg
[2]
  LD50: 175 mg/kg

## CN1C(=O)C(=NNC(N)=S)c2ccccc21 [M-IBT, N-methylisatine 3-thiosemicarbazone]
[1]; ICR mice 20 g-weight
  MTD: 50 mg/kg
[3]
  effectiveness against viruses of the Retroviridae: ineffective
[2]
  LD50: 125 mg/kg
[4]
  clinical effectiveness against pox virus / smallpox: effective in the treatment of humans against smallpox; also recorded: effective against subjects known to have contact with smallpox; also recorded: effective results; also recorded: clinically effective
[5]
  effectiveness on virus infectivity: not effective
[6]
  inhibition of HIV production: No inhibition could be detected
[7]
  effectiveness against EIAV: ineffective

## CCN(CC)C(=S)NN=C1C(=O)N(C)c2ccccc21 [M-IBDET, 1-methylisatin-β-4':4'-diethylthiosemicarbazone]
[1]; [10]
  MTD: 50 mg/kg
[8]
  delay in the appearance of the lymphoma: 3 weeks
[9]
  inhibition of production of Moloney leukemia virus: inhibits the production of Moloney leukemia virus
[2]
  LD50: 125 mg/kg

## C=CCN1C(=O)C(=NNC(=S)N(CC)CC)c2ccccc21 [A-IBDET, 1-allylisatin-β-4':4'-diethylthiosemicarbazone]
[1]; [10]
  MTD: 100 mg/kg
[2]
  LD50: 175 mg/kg
